Residue numbers refer to the chain shown, from its start. Like-named read-outs stand apart in the source and are kept apart here.
Assays:
RET(KD: 658-1114 G810R) = biological target: T1, RET(KD: 658-1114 G810R) (Homo sapiens, UniProt P07949, G810R); assay: HiBiT-Degradation, RET G810R degradation assay (Nano-Glo HiBiT Lytic), 293T.165 cells; type: cell-based; settings: for Emax / DC50: 6.0 hours
T1 construct: 658-1114; expressed in transfected cells; host or cells: 293T.165 (293T cells, generated in-house)
T1 sequence (P07949 658-1114 G810R): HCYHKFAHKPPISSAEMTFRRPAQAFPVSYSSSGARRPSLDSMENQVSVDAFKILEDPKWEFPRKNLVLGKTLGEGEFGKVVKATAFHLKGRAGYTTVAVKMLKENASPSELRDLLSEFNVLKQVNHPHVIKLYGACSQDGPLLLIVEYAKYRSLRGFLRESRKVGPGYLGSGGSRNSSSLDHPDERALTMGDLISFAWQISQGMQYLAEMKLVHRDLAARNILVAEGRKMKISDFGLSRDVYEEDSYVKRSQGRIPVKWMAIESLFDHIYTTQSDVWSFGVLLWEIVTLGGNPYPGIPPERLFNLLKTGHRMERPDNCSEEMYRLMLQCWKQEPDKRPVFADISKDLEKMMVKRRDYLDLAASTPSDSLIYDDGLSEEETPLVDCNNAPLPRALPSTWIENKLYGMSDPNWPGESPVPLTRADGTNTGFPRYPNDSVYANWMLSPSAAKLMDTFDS
How it was run: (§1)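 Luminescence readout of HiBiT-tagged RET kinase domain remaining after 6 h compound exposure. Cells: 293T.144 (wild type) or 293T.165 (G810R), 11 half-log doses up to 10 μM, duplicates. DC50 and Emax as % remaining protein taken from curve fits.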

RET (658-1114) = biological target: T2, RET (658-1114) (Homo sapiens, UniProt P07949); assay: HiBiT-Degradation, RET wild-type degradation assay (Nano-Glo HiBiT Lytic), 293T.144 cells; type: cell-based; settings: for DC50 / Emax: 6.0 hours
T2 construct: 658-1114; expressed in transfected cells; host or cells: 293T.144 (293T cells, generated in-house)
T2 sequence (P07949 658-1114): T1 sequence (P07949 658-1114 G810R) with R153G
How it was run: as §1

[1] = % remaining protein, read-out: 293T.165 RET(KD: 658-1114 G810R) 6.0 hours (Emax)
[2] = half-maximal degradation concentration, read-out: 293T.165 RET(KD: 658-1114 G810R) 6.0 hours (DC50)
[3] = HiBiT-Degradation, read-out: 293T.165 RET(KD: 658-1114 G810R) 6.0 hours (DC50)
[4] = HiBiT-Degradation, read-out: 293T.144 RET (658-1114) 6.0 hours (DC50)
[5] = HiBiT-Degradation, read-out: 293T.144 RET (658-1114) 6.0 hours (Emax)
[6] = RET G810R, read-out: HiBiT-Degradation 293T.165 RET(KD: 658-1114 G810R) 6.0 hours (DC50)
[7] = RET G810R, read-out: HiBiT-Degradation 293T.165 RET(KD: 658-1114 G810R) 6.0 hours (Emax)
[8] = RET wild-type, read-out: HiBiT-Degradation 293T.144 RET (658-1114) 6.0 hours (DC50)
[9] = RET wild-type, read-out: HiBiT-Degradation 293T.144 RET (658-1114) 6.0 hours (Emax)

Row | SMILES | Emax (RET(KD: 658-1114 G810R); [1]) [%] | DC50 (RET(KD: 658-1114 G810R); [2]) [nM] | 293T.165 RET(KD: 658-1114 G810R) 6.0 hours (Emax) (RET(KD: 658-1114 G810R); HiBiT-Degradation) | 293T.165 RET(KD: 658-1114 G810R) 6.0 hours (IP) [nM] (RET(KD: 658-1114 G810R); HiBiT-Degradation) | DC50 (RET(KD: 658-1114 G810R); [3]) [nM] | 293T.144 RET (658-1114) 6.0 hours (IP) [nM] (RET (658-1114); HiBiT-Degradation) | DC50 (RET (658-1114); [4]) [nM] | Emax (RET (658-1114); [5]) [%] | HiBiT-Degradation 293T.165 RET(KD: 658-1114 G810R) 6.0 hours (IP) [nM] (RET(KD: 658-1114 G810R); RET G810R) | DC50 (RET(KD: 658-1114 G810R); [6]) [nM] | Emax (RET(KD: 658-1114 G810R); [7]) [%] | HiBiT-Degradation 293T.144 RET (658-1114) 6.0 hours (IP) [nM] (RET (658-1114); RET wild-type) | DC50 (RET (658-1114); [8]) [nM] | Emax (RET (658-1114); [9]) [%]
1 | N#Cc1cnn2cc(-c3cnn(C4CCN(C(=O)CN5CCC(c6ccc(NC7CCC(=O)NC7=O)cc6F)CC5)CC4)c3)cc(-c3ccc(N4CC5CCC(C4)N5Cc4ccccn4)nc3)c12 (stereo not shown) [Compound 62, 6-[1-[1-[2-[4-[4-[(2,6-dioxo-3-piperidyl)amino]-2-fluoro-phenyl]-1-piperidyl]acetyl]-4-piperidyl]pyrazol-4-yl]-4-[6-[8-(2-pyridylmethyl)-3,8-diazabicyclo[3.2.1]octan-3-yl]-3-pyridyl]pyrazolo[1,5-a]pyridine-3-carbonitrile] | < 50 | < 100 | +++ (<50% = +++) | ++++ (< 50 nM = ++++) | < 100 | ++++ (< 50 nM = ++++) | < 50 | < 30 |  |  |  |  |  | 
2 | N#Cc1cnn2cc(-c3ccc(N4CCN(C(=O)CN5CCC(c6ccc(NC7CCC(=O)NC7=O)cc6F)CC5)CC4)nc3)cc(-c3ccc(N4CCN(Cc5ccccn5)CC4)nc3)c12 (stereo not shown) [Compound 67, 6-[6-[4-[2-[4-[4-[(2,6-dioxo-3-piperidyl)amino]-2-fluoro-phenyl]-1-piperidyl]acetyl]piperazin-1-yl]-3-pyridyl]-4-[6-[4-(2-pyridylmethyl)piperazin-1-yl]-3-pyridyl]pyrazolo[1,5-a]pyridine-3-carbonitrile] | < 50 | < 100 |  |  |  |  |  |  | ++++ (< 50 nM = ++++) | < 100 | < 50 | ++++ (< 50 nM = ++++) | < 50 | < 30
3 | N#Cc1cnn2cc(-c3cnn(C4CCN(C(=O)CN5CCC(c6ccc(NC7CCC(=O)NC7=O)cc6F)CC5)CC4)c3)cc(-c3ccc(N4CC5CC(C4)N5Cc4cccnc4)nc3)c12 (stereo not shown) [Compound 68, 6-[1-[1-[2-[4-[4-[(2,6-dioxo-3-piperidyl)amino]-2-fluoro-phenyl]-1-piperidyl]acetyl]-4-piperidyl]pyrazol-4-yl]-4-[6-[6-(3-pyridylmethyl)-3,6-diazabicyclo[3.1.1]heptan-3-yl]-3-pyridyl]pyrazolo[1,5-a]pyridine-3-carbonitrile] | < 30 | < 50 |  |  |  |  |  |  | ++++ (< 50 nM = ++++) | < 50 | < 30 | ++++ (< 50 nM = ++++) | < 50 | < 30
4 | CCC1(C(=O)NC(C)C)CCN(c2ccc(-c3nc(-c4cnn(C5CCN(C(=O)CC6(O)CCN(c7ccc(NC8CCC(=O)NC8=O)c(F)c7)CC6)CC5)c4)cn4ncc(C#N)c34)cn2)CC1 (stereo not shown) [Compound 69, 1-[5-[3-cyano-6-[1-[1-[2-[1-[4-[(2,6-dioxo-3-piperidyl)amino]-3-fluoro-phenyl]-4-hydroxy-4-piperidyl]acetyl]-4-piperidyl]pyrazol-4-yl]pyrazolo[1,5-a]pyrazin-4-yl]-2-pyridyl]-4-ethyl-N-isopropyl-piperidine-4-carboxamide] | < 50 | < 100 |  |  |  |  |  |  | ++++ (< 50 nM = ++++) | < 100 | < 50 | ++++ (< 50 nM = ++++) | < 50 | < 30

Results, then the compound that gave them:

Row | Emax (RET(KD: 658-1114 G810R); [1]) [%] | DC50 (RET(KD: 658-1114 G810R); [2]) [nM] | 293T.165 RET(KD: 658-1114 G810R) 6.0 hours (Emax) (RET(KD: 658-1114 G810R); HiBiT-Degradation) | 293T.165 RET(KD: 658-1114 G810R) 6.0 hours (IP) [nM] (RET(KD: 658-1114 G810R); HiBiT-Degradation) | DC50 (RET(KD: 658-1114 G810R); [3]) [nM] | 293T.144 RET (658-1114) 6.0 hours (IP) [nM] (RET (658-1114); HiBiT-Degradation) | DC50 (RET (658-1114); [4]) [nM] | Emax (RET (658-1114); [5]) [%] | HiBiT-Degradation 293T.165 RET(KD: 658-1114 G810R) 6.0 hours (IP) [nM] (RET(KD: 658-1114 G810R); RET G810R) | DC50 (RET(KD: 658-1114 G810R); [6]) [nM] | Emax (RET(KD: 658-1114 G810R); [7]) [%] | HiBiT-Degradation 293T.144 RET (658-1114) 6.0 hours (IP) [nM] (RET (658-1114); RET wild-type) | DC50 (RET (658-1114); [8]) [nM] | Emax (RET (658-1114); [9]) [%] | SMILES
5 | < 30 | < 100 | ++++ (< 30% = ++++) | ++++ (< 50 nM = ++++) | < 100 | ++++ (< 50 nM = ++++) | < 50 | < 30 |  |  |  |  |  |  | CCC1(C(=O)NC(C)C)CCN(c2ccc(-c3cc(-c4cnn(C5CCN(C(=O)CN6CCC(c7ccc8c(N9CCC(=O)NC9=O)nn(C)c8c7)CC6)CC5)c4)cn4ncc(C#N)c34)cn2)CC1 [Compound 63, 1-[5-[3-cyano-6-[1-[1-[2-[4-[3-(2,4-dioxohexahydropyrimidin-1-yl)-1-methyl-indazol-6-yl]-1-piperidyl]acetyl]-4-piperidyl]pyrazol-4-yl]pyrazolo[1,5-a]pyridin-4-yl]-2-pyridyl]-4-ethyl-N-isopropyl-piperidine-4-carboxamide]
6 | < 30 | < 100 | ++++ (< 30% = ++++) | ++++ (< 50 nM = ++++) | < 100 | ++++ (< 50 nM = ++++) | < 50 | < 30 |  |  |  |  |  |  | CCC1(C(=O)NC(C)C)CCN(c2ccc(-c3cc(-c4ccc(N5CCN(C(=O)CN6CCC(c7ccc8c(N9CCC(=O)NC9=O)nn(C)c8c7)CC6)CC5)cc4)cn4ncc(C#N)c34)cn2)CC1 [Compound 64, 1-[5-[3-cyano-6-[4-[4-[2-[4-[3-(2,4-dioxohexahydropyrimidin-1-yl)-1-methyl-indazol-6-yl]-1-piperidyl]acetyl]piperazin-1-yl]phenyl]pyrazolo[1,5-a]pyridin-4-yl]-2-pyridyl]-4-ethyl-N-isopropyl-piperidine-4-carboxamide]
7 | < 50 | < 100 | +++ (<50% = +++) | +++ (<100 nM = +++) | < 100 | ++++ (< 50 nM = ++++) | < 50 | < 30 |  |  |  |  |  |  | Cn1nc(N2CCC(=O)NC2=O)c2ccc(C3CCN(CC(=O)N4CCN(c5ccc(-c6cc(-c7ccc(N8CCN(Cc9ccccn9)CC8)nc7)c7c(C#N)cnn7c6)cc5)CC4)CC3)cc21 [Compound 65, 6-[4-[4-[2-[4-[3-(2,4-dioxohexahydropyrimidin-1-yl)-1-methyl-indazol-6-yl]-1-piperidyl]acetyl]piperazin-1-yl]phenyl]-4-[6-[4-(2-pyridylmethyl)piperazin-1-yl]-3-pyridyl]pyrazolo[1,5-a]pyridine-3-carbonitrile]
8 | < 30 | < 50 | ++++ (< 30% = ++++) | ++++ (< 50 nM = ++++) | < 50 | ++++ (< 50 nM = ++++) | < 50 | < 30 |  |  |  |  |  |  | CCC1(C(=O)NC(C)C)CCN(c2ccc(-c3cc(-c4cnn(C5CCN(C(=O)CN6CCN(c7ccc(NC8CCC(=O)NC8=O)cc7F)CC6)CC5)c4)cn4ncc(C#N)c34)cn2)CC1 (stereo not shown) [Compound 66, 1-[5-[3-cyano-6-[1-[1-[2-[4-[4-[(2,6-dioxo-3-piperidyl)amino]-2-fluoro-phenyl]piperazin-1-yl]acetyl]-4-piperidyl]pyrazol-4-yl]pyrazolo[1,5-a]pyridin-4-yl]-2-pyridyl]-4-ethyl-N-isopropyl-piperidine-4-carboxamide]
